In one test the test system is M. tuberculosis H37Rv. The experiment in a line: Microplate Alamar Blue MIC assay, M. tuberculosis H37Rv. The class given is cell-based. Particulars: Mycobacterium tuberculosis, read-out: antibacterial activity M. tuberculosis H37Rv MIC. (Alamar Blue is a resazurin reagent that responds to reducing activity.)
The next test has as its system M. avium ATCC 25291. The test can be described thus: Microplate Alamar Blue MIC assay, M. avium. It is filed as cell-based, Mycobacterium avium.

The structures appear in SMILES notation. Values after ≈ are worked out from the molar mass of the structure shown.

On to `CO[C@H]1/C=C/O[C@@]2(C)Oc3c(C)c(O)c4c(O)c(c(/C=N/N5CCN(c6ccc(F)cc6NC(=O)C(Cc6ccccc6)NC(=O)c6ccccc6F)CC5)c(O)c4c3C2=O)NC(=O)/C(C)=C\C=C\[C@H](C)[C@H](O)[C@@H](C)[C@@H](O)[C@@H](C)[C@H](OC(C)=O)[C@@H]1C` (some centres unmarked) [IX-398, Rifamycin SV—(CHN)—IX-214 Conjugate], for which, in the test with M. tuberculosis H37Rv, the MIC stood at 0.39 µg/mL (≈ 0.328 µM). Besides, the “antibacterial activity M. avium ATCC 25291” value in the test on M. avium ATCC 25291 stood at 0.098.
For `CO[C@H]1/C=C/O[C@@]2(C)Oc3c(C)c(O)c4c(O)c(c(/C=N/N5CCN(CCN6CCN(c7ccc(F)cc7NC(=O)C(Cc7ccccc7)NC(=O)c7ccccc7F)CC6)CC5)c(O)c4c3C2=O)NC(=O)/C(C)=C\C=C\[C@H](C)[C@H](O)[C@@H](C)[C@@H](O)[C@@H](C)[C@H](OC(C)=O)[C@@H]1C` (some centres unmarked) [IX-403, Rifamycin SV—(CHN)—IX-402 Conjugate], the minimum inhibitory concentration (MIC) in the test with M. tuberculosis H37Rv is 3.13 µg/mL (≈ 2.41 µM). The “antibacterial activity M. avium ATCC 25291” value in the test on M. avium ATCC 25291 is given as 3.13.
As to `[2H]C([2H])(c1ccccc1)C(NC(=O)c1ccccc1F)C(=O)Nc1cc(F)ccc1N1CCN(/N=C/c2c3c(O)c4c(O)c(C)c5c(c4c2O)C(=O)[C@@](C)(O/C=C/[C@H](OC)[C@@H](C)[C@@H](OC(C)=O)[C@H](C)[C@H](O)[C@H](C)[C@@H](O)[C@@H](C)/C=C/C=C(/C)C(=O)N3)O5)CC1` (some centres unmarked) [IX-404a, Rifamycin SV—(CHN)—IX-370a Conjugate], the minimal inhibitory concentration (MIC) in the test on M. tuberculosis H37Rv is 0.049 µg/mL (≈ 0.0412 µM). The “antibacterial activity M. avium ATCC 25291” value in the test with M. avium ATCC 25291 was 0.048.
As for `[2H]C([2H])(c1ccccc1)C(NC(=O)c1ccccc1F)C(=O)Nc1cc(F)ccc1N1CCN(C(=O)COc2cc3c(O)c4c(O)c(C)c5c(c24)C(=O)[C@@](C)(O/C=C/[C@H](OC)[C@@H](C)[C@@H](OC(C)=O)[C@H](C)[C@H](O)[C@H](C)[C@@H](O)[C@@H](C)/C=C/C=C(/C)C(=O)N3)O5)CC1` (some centres unmarked) [IX-408a, Rifamycin B—IX-370a Conjugate], in the test with M. tuberculosis H37Rv, the MIC worked out at 0.2 µg/mL (≈ 0.166 µM). The “antibacterial activity M. avium ATCC 25291” value with M. avium ATCC 25291 was 0.78.
For the molecule `[2H]C([2H])(c1ccccc1)C(NC(=O)c1ccccc1F)C(=O)Nc1cc(F)ccc1N1CCN(/N=C/C2=C3NC(=O)/C(C)=C\C=C\[C@H](C)[C@H](O)[C@@H](C)[C@@H](O)[C@@H](C)[C@H](OC(C)=O)[C@H](C)[C@@H](OC)/C=C/O[C@@]4(C)Oc5c(C)c(O)c(c(c5C4=O)C2=O)C3=O)CC1` (some centres unmarked) [IX-476a, Rifamycin S—(CHN)—IX-370a Conjugate], the minimal inhibitory concentration (MIC) in the test on M. tuberculosis H37Rv was determined as 0.2 µg/mL (≈ 0.168 µM).
Take `CO[C@H]1/C=C/O[C@@]2(C)Oc3c(C)c(O)c4c(O)c(c(/C=N/N5CCN(C)CC5)c(O)c4c3C2=O)NC(=O)/C(C)=C\C=C\[C@H](C)[C@H](O)[C@@H](C)[C@@H](O)[C@@H](C)[C@H](OC(C)=O)[C@@H]1C` [rifampin, reference compound]: the MIC with M. tuberculosis H37Rv was 0.049 µg/mL (≈ 0.0595 µM). Further, the “antibacterial activity M. avium ATCC 25291” value with M. avium ATCC 25291 is given as 0.024.

Usually MIC stands for the smallest concentration in the dilution series that meets the test's criterion for growth inhibition.
